Measurements as given in the supplement of paper PMC10307832.

Tests used:
Test in all cases: relative viability (nuclei count vs DMSO), 5 days (fraction); higher = more cells survive
[1] = test system: 201T
Method in brief: (§1)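 Five library-drug doses in √10 steps were combined with a fixed anchor-drug dose, or a single drug was given alone, by pin tool to lung cancer cell lines in 1536-well plates the day after seeding. Nuclei were stained and counted after 5 days. Relative viability is the nuclei count in treated wells over that in vehicle wells, taken as the median of duplicate plates.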

[2] = test system: BEN
Method in brief: as §1

[3] = test system: CAL-12T
Method in brief: as §1

[4] = test system: HCC-78
Method in brief: as §1

[5] = test system: HOP-62
Method in brief: as §1

[6] = test system: LCLC-97TM1
Method in brief: as §1

[7] = test system: LOU-NH91
Method in brief: as §1

[8] = test system: NCI-H1355
Method in brief: as §1

[9] = test system: NCI-H1395
Method in brief: as §1

[10] = test system: NCI-H1563
Method in brief: as §1

[11] = test system: NCI-H1651
Method in brief: as §1

[12] = test system: NCI-H1793
Method in brief: as §1

[13] = test system: NCI-H1915
Method in brief: as §1

[14] = test system: NCI-H1944
Method in brief: as §1

[15] = test system: NCI-H2126
Method in brief: as §1

[16] = test system: NCI-H2347
Method in brief: as §1

[17] = test system: NCI-H3122
Method in brief: as §1

[18] = test system: NCI-H322M
Method in brief: as §1

[19] = test system: NCI-H441
Method in brief: as §1

[20] = test system: NCI-H650
Method in brief: as §1

[21] = test system: NCI-H838
Method in brief: as §1

[22] = test system: SK-LU-1
Method in brief: as §1

[23] = test system: SW 1573
Method in brief: as §1

Q: CN1CCN(CCOc2cc(OC3CCOCC3)c3c(Nc4c(Cl)ccc5c4OCO5)ncnc3c2)CC1 [Saracatinib] + COc1cccc2cc(-c3nc([C@H]4CC[C@H](C(=O)O)CC4)n4ncnc(N)c34)[nH]c12 [OSI-027] (partner 0.5 µM) was tested. Which relative viability ([1]; first compound 0.02 µM) did it give?
A: 0.725

Q: And the relative viability ([1]; first compound 0.2 µM)?
A: 0.53

Q: And the relative viability ([1]; first compound 0.6325 µM)?
A: 0.752

Q: And the relative viability ([1]; first compound 2 µM)?
A: 0.445

Q: And the relative viability ([2]; first compound 0.02 µM)?
A: 0.284

Q: And the relative viability ([2]; first compound 0.6325 µM)?
A: 0.309

Q: What about the relative viability ([2]; first compound 2 µM) of the same molecule?
A: 0.261

Q: What about the relative viability ([3]; first compound 0.02 µM) of the same molecule?
A: 0.734

Q: What about the relative viability ([3]; first compound 0.2 µM) of the same molecule?
A: 0.677

Q: What about the relative viability ([3]; first compound 0.6325 µM) of the same molecule?
A: 1.08

Q: What about the relative viability ([3]; first compound 2 µM) of the same molecule?
A: 0.57

Q: And the relative viability ([4]; first compound 0.02 µM)?
A: 0.426

Q: What about the relative viability ([4]; first compound 0.6325 µM) of the same molecule?
A: 0.379

Q: What about the relative viability ([4]; first compound 2 µM) of the same molecule?
A: 0.317

Q: What about the relative viability ([5]; first compound 0.02 µM) of the same molecule?
A: 0.836

Q: And the relative viability ([5]; first compound 0.2 µM)?
A: 0.796

Q: What about the relative viability ([5]; first compound 0.6325 µM) of the same molecule?
A: 0.794

Q: What about the relative viability ([5]; first compound 2 µM) of the same molecule?
A: 0.773

Q: What about the relative viability ([6]; first compound 0.02 µM) of the same molecule?
A: 0.696

Q: What about the relative viability ([6]; first compound 0.2 µM) of the same molecule?
A: 0.221

Q: What about the relative viability ([6]; first compound 0.6325 µM) of the same molecule?
A: 0.7

Q: What about the relative viability ([6]; first compound 2 µM) of the same molecule?
A: 0.505

Q: And the relative viability ([7]; first compound 0.02 µM)?
A: 0.756

Q: What about the relative viability ([7]; first compound 0.2 µM) of the same molecule?
A: 0.556

Q: What about the relative viability ([7]; first compound 0.6325 µM) of the same molecule?
A: 0.544

Q: What about the relative viability ([7]; first compound 2 µM) of the same molecule?
A: 0.413

Q: What about the relative viability ([8]; first compound 0.02 µM) of the same molecule?
A: 0.482

Q: And the relative viability ([8]; first compound 0.2 µM)?
A: 0.379

Q: And the relative viability ([8]; first compound 0.6325 µM)?
A: 0.427

Q: And the relative viability ([8]; first compound 2 µM)?
A: 0.323

Q: And the relative viability ([9]; first compound 0.02 µM)?
A: 0.618

Q: And the relative viability ([9]; first compound 0.2 µM)?
A: 0.613

Q: And the relative viability ([9]; first compound 0.6325 µM)?
A: 0.583

Q: And the relative viability ([9]; first compound 2 µM)?
A: 0.485

Q: What about the relative viability ([10]; first compound 0.02 µM) of the same molecule?
A: 0.703

Q: What about the relative viability ([10]; first compound 0.2 µM) of the same molecule?
A: 0.663

Q: And the relative viability ([10]; first compound 0.6325 µM)?
A: 0.645

Q: What about the relative viability ([10]; first compound 2 µM) of the same molecule?
A: 0.711

Q: And the relative viability ([11]; first compound 0.02 µM)?
A: 0.694

Q: And the relative viability ([11]; first compound 0.2 µM)?
A: 0.657

Q: And the relative viability ([11]; first compound 0.6325 µM)?
A: 0.81

Q: And the relative viability ([11]; first compound 2 µM)?
A: 0.485

Q: And the relative viability ([12]; first compound 0.02 µM)?
A: 0.303

Q: And the relative viability ([12]; first compound 0.6325 µM)?
A: 0.312

Q: And the relative viability ([12]; first compound 2 µM)?
A: 0.253

Q: What about the relative viability ([13]; first compound 0.02 µM) of the same molecule?
A: 0.623

Q: And the relative viability ([13]; first compound 0.2 µM)?
A: 0.408

Q: What about the relative viability ([13]; first compound 0.6325 µM) of the same molecule?
A: 0.587

Q: What about the relative viability ([13]; first compound 2 µM) of the same molecule?
A: 0.474

Q: What about the relative viability ([14]; first compound 0.02 µM) of the same molecule?
A: 0.43

Q: And the relative viability ([14]; first compound 0.6325 µM)?
A: 0.324

Q: And the relative viability ([14]; first compound 2 µM)?
A: 0.274

Q: What about the relative viability ([15]; first compound 0.02 µM) of the same molecule?
A: 0.8

Q: What about the relative viability ([15]; first compound 0.2 µM) of the same molecule?
A: 0.672

Q: And the relative viability ([15]; first compound 0.6325 µM)?
A: 0.662

Q: What about the relative viability ([15]; first compound 2 µM) of the same molecule?
A: 0.589

Q: What about the relative viability ([16]; first compound 0.02 µM) of the same molecule?
A: 0.348

Q: And the relative viability ([16]; first compound 0.2 µM)?
A: 0.373

Q: What about the relative viability ([16]; first compound 0.6325 µM) of the same molecule?
A: 0.406

Q: What about the relative viability ([16]; first compound 2 µM) of the same molecule?
A: 0.306

Q: And the relative viability ([17]; first compound 0.02 µM)?
A: 0.957

Q: What about the relative viability ([17]; first compound 0.2 µM) of the same molecule?
A: 0.357

Q: What about the relative viability ([17]; first compound 0.6325 µM) of the same molecule?
A: 0.968

Q: What about the relative viability ([17]; first compound 2 µM) of the same molecule?
A: 0.718

Q: What about the relative viability ([18]; first compound 0.02 µM) of the same molecule?
A: 0.56

Q: And the relative viability ([18]; first compound 0.2 µM)?
A: 0.499

Q: What about the relative viability ([18]; first compound 0.6325 µM) of the same molecule?
A: 0.449

Q: What about the relative viability ([18]; first compound 2 µM) of the same molecule?
A: 0.275

Q: What about the relative viability ([19]; first compound 0.02 µM) of the same molecule?
A: 0.614

Q: And the relative viability ([19]; first compound 0.2 µM)?
A: 0.532

Q: What about the relative viability ([19]; first compound 0.6325 µM) of the same molecule?
A: 0.875

Q: What about the relative viability ([19]; first compound 2 µM) of the same molecule?
A: 0.623

Q: And the relative viability ([20]; first compound 0.02 µM)?
A: 0.602

Q: What about the relative viability ([20]; first compound 0.2 µM) of the same molecule?
A: 0.504

Q: And the relative viability ([20]; first compound 0.6325 µM)?
A: 0.524

Q: What about the relative viability ([20]; first compound 2 µM) of the same molecule?
A: 0.493

Q: And the relative viability ([21]; first compound 0.02 µM)?
A: 0.348

Q: And the relative viability ([21]; first compound 0.2 µM)?
A: 0.302

Q: And the relative viability ([21]; first compound 0.6325 µM)?
A: 0.401

Q: What about the relative viability ([21]; first compound 2 µM) of the same molecule?
A: 0.235

Q: And the relative viability ([22]; first compound 0.02 µM)?
A: 0.33

Q: And the relative viability ([22]; first compound 0.2 µM)?
A: 0.28

Q: What about the relative viability ([22]; first compound 0.6325 µM) of the same molecule?
A: 0.245

Q: What about the relative viability ([22]; first compound 2 µM) of the same molecule?
A: 0.172

Q: And the relative viability ([23]; first compound 0.02 µM)?
A: 0.624

Q: And the relative viability ([23]; first compound 0.2 µM)?
A: 0.55

Q: What about the relative viability ([23]; first compound 0.6325 µM) of the same molecule?
A: 0.667

Q: And the relative viability ([23]; first compound 2 µM)?
A: 0.456
